Assay results reported in US6770596B1, “Fused tricyclic compounds, process for their preparation, and herbicidal compositions containing them” (Ishihara Sangyo Kaisha Ltd., priority 2002, dated 2004).

Key:
Type in all cases: in vivo
[1] = system: field corn (Zea mays L., var. Dekalb 535, CORN); test: Pre-emerge test, crop damage field corn; settings: pre-emerge, 250 g ai/ha, 14 days after application, rating scale 0-100 (0 no damage, 100 complete death)
Summary of the method: (§1)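 Pots (10 cm, sandy loam mix) were seeded one day ahead of spraying. Test materials, dissolved in acetone, went on at 8–1000 g ai/ha in a 187 l/ha spray volume. Damage was scored 14 days later from 0 (none) to 100 (total kill).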

[2] = system: redroot pigweed (Amaranthus retroflexus, AMR); test: Post-emerge test, redroot pigweed; settings: 250 g ai/ha, 14 days after application, rating scale 0-100 (0 no damage, 100 complete death)
Summary of the method: (§2)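 Post-emergence spray, 8-1000 g ai/ha in acetone at 187 l/ha with 0.25% v/v non-ionic surfactant, applied to 2-3 leaf plants. Pots of sandy loam mix, greenhouse. Visual 0-100 injury rating at 14 DAT.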

[3] = system: ivyleaf morningglory (Ipomoea hederacea, IPH); test: Pre-emerge test, ivyleaf morningglory; settings: 250 g ai/ha, 14 days after application, rating scale 0-100 (0 no damage, 100 complete death)
Summary of the method: (§3)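 Seeds planted 1 day pre-application in sandy loam soil mix; acetone solutions sprayed at 8 to 1000 g ai/ha (187 l/ha, flat fan nozzle, track sprayer). 14 d later, visual damage scored on a 0–100 scale.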

[4] = system: cocklebur (Xanthium strumariunt, XAS); test: Post-emerge test, cocklebur; settings: 250 g ai/ha, 14 days after application, rating scale 0-100 (0 no damage, 100 complete death)
Summary of the method: as §2

[5] = system: green foxtail (Setaria viridis, SEV); test: Pre-emerge test, green foxtail; settings: 250 g ai/ha, 14 days after application, rating scale 0-100 (0 no damage, 100 complete death)
Summary of the method: as §3

[6] = system: common ragweed (Ambrosia artemisiifolia L., AML); test: Pre-emerge test, common ragweed; settings: 250 g ai/ha, 14 days after application, rating scale 0-100 (0 no damage, 100 complete death)
Summary of the method: as §3

[7] = system: sicklepod (Cassia obtusifolia, CAO); test: Pre-emerge test, sicklepod; settings: 250 g ai/ha, 14 days after application, rating scale 0-100 (0 no damage, 100 complete death)
Summary of the method: as §3

[8] = system: field corn (Zea mays L., var. Dekalb 535, CORN); test: Post-emerge test, crop damage field corn; settings: post-emerge, 250 g ai/ha, 14 days after application, rating scale 0-100 (0 no damage, 100 complete death)
Summary of the method: as §2

[9] = system: johnsongrass (Sorghum halepense, SOH); test: Pre-emerge test, johnsongrass; settings: 250 g ai/ha, 14 days after application, rating scale 0-100 (0 no damage, 100 complete death)
Summary of the method: as §3

[10] = system: upland rice (Oryza sp., var.Tebonnet, RICE); test: Pre-emerge test, crop damage upland rice; settings: pre-emerge, 250 g ai/ha, 14 days after application, rating scale 0-100 (0 no damage, 100 complete death)
Summary of the method: as §1

[11] = system: soybean (Glycine max L., var. Pella 86, SOY); test: Pre-emerge test, crop damage soybean; settings: pre-emerge, 250 g ai/ha, 14 days after application, rating scale 0-100 (0 no damage, 100 complete death)
Summary of the method: as §1

[12] = system: wheat (Triticum aestivum); test: Post-emerge test, crop damage wheat; settings: post-emerge, 250 g ai/ha, 14 days after application, rating scale 0-100 (0 no damage, 100 complete death)
Summary of the method: as §2

[13] = system: lambsquarters (Chenopodium album, CHA); test: Post-emerge test, lambsquarters; settings: 250 g ai/ha, 14 days after application, rating scale 0-100 (0 no damage, 100 complete death)
Summary of the method: as §2

[14] = system: velvetleaf (Abutilon theophrasti, ABT); test: Post-emerge test, velvetleaf; settings: 250 g ai/ha, 14 days after application, rating scale 0-100 (0 no damage, 100 complete death)
Summary of the method: as §2

[15] = system: soybean (Glycine max L., var. Pella 86, SOY); test: Post-emerge test, crop damage soybean; settings: post-emerge, 250 g ai/ha, 14 days after application, rating scale 0-100 (0 no damage, 100 complete death)
Summary of the method: as §2

[16] = system: cocklebur (Xanthium strumariunt, XAS); test: Pre-emerge test, cocklebur; settings: 250 g ai/ha, 14 days after application, rating scale 0-100 (0 no damage, 100 complete death)
Summary of the method: as §3

[17] = system: large crabgrass (Digitaria sanguinalis, DIS); test: Pre-emerge test, large crabgrass; settings: 250 g ai/ha, 14 days after application, rating scale 0-100 (0 no damage, 100 complete death)
Summary of the method: as §3

[18] = system: johnsongrass (Sorghum halepense, SOH); test: Post-emerge test, johnsongrass; settings: 250 g ai/ha, 14 days after application, rating scale 0-100 (0 no damage, 100 complete death)
Summary of the method: as §2

[19] = system: velvetleaf (Abutilon theophrasti, ABT); test: Pre-emerge test, velvetleaf; settings: 250 g ai/ha, 14 days after application, rating scale 0-100 (0 no damage, 100 complete death)
Summary of the method: as §3

[20] = system: upland rice (Oryza sp., var.Tebonnet, RICE); test: Post-emerge test, crop damage upland rice; settings: post-emerge, 250 g ai/ha, 14 days after application, rating scale 0-100 (0 no damage, 100 complete death)
Summary of the method: as §2

[21] = system: ivyleaf morningglory (Ipomoea hederacea, IPH); test: Post-emerge test, ivyleaf morningglory; settings: 250 g ai/ha, 14 days after application, rating scale 0-100 (0 no damage, 100 complete death)
Summary of the method: as §2

[22] = system: wheat (Triticum aestivum); test: Pre-emerge test, crop damage wheat; settings: pre-emerge, 250 g ai/ha, 14 days after application, rating scale 0-100 (0 no damage, 100 complete death)
Summary of the method: as §1

[23] = system: sicklepod (Cassia obtusifolia, CAO); test: Post-emerge test, sicklepod; settings: 250 g ai/ha, 14 days after application, rating scale 0-100 (0 no damage, 100 complete death)
Summary of the method: as §2

[24] = system: common ragweed (Ambrosia artemisiifolia L., AML); test: Post-emerge test, common ragweed; settings: 250 g ai/ha, 14 days after application, rating scale 0-100 (0 no damage, 100 complete death)
Summary of the method: as §2

[25] = system: lambsquarters (Chenopodium album, CHA); test: Pre-emerge test, lambsquarters; settings: 250 g ai/ha, 14 days after application, rating scale 0-100 (0 no damage, 100 complete death)
Summary of the method: as §3

[26] = system: barnyardgrass (Echinachloa crus-galli, ECC); test: Post-emerge test, barnyardgrass; settings: 250 g ai/ha, 14 days after application, rating scale 0-100 (0 no damage, 100 complete death)
Summary of the method: as §2

[27] = system: barnyardgrass (Echinachloa crus-galli, ECC); test: Pre-emerge test, barnyardgrass; settings: 250 g ai/ha, 14 days after application, rating scale 0-100 (0 no damage, 100 complete death)
Summary of the method: as §3

[28] = system: redroot pigweed (Amaranthus retroflexus, AMR); test: Pre-emerge test, redroot pigweed; settings: 250 g ai/ha, 14 days after application, rating scale 0-100 (0 no damage, 100 complete death)
Summary of the method: as §3

[29] = system: green foxtail (Setaria viridis, SEV); test: Post-emerge test, green foxtail; settings: 250 g ai/ha, 14 days after application, rating scale 0-100 (0 no damage, 100 complete death)
Summary of the method: as §2

[30] = system: large crabgrass (Digitaria sanguinalis, DIS); test: Post-emerge test, large crabgrass; settings: 250 g ai/ha, 14 days after application, rating scale 0-100 (0 no damage, 100 complete death)
Summary of the method: as §2

SMILES | Pre-emerge crop damage CORN (phytotoxicity rating) [1] | Post-emerge Herbicidal Activity AMR (phytotoxicity rating) [2] | Pre-emerge Herbicidal Activity IPH (phytotoxicity rating) [3] | Post-emerge Herbicidal Activity XAS (phytotoxicity rating) [4] | Pre-emerge Herbicidal Activity SEV (phytotoxicity rating) [5] | Pre-emerge Herbicidal Activity AML (phytotoxicity rating) [6] | Pre-emerge Herbicidal Activity CAO (phytotoxicity rating) [7] | Post-emerge crop damage CORN (phytotoxicity rating) [8] | Pre-emerge Herbicidal Activity SOH (phytotoxicity rating) [9] | Pre-emerge crop damage RICE (phytotoxicity rating) [10] | Pre-emerge crop damage SOY (phytotoxicity rating) [11] | Post-emerge crop damage WHEAT (phytotoxicity rating) [12] | Post-emerge Herbicidal Activity CHA (phytotoxicity rating) [13] | Post-emerge Herbicidal Activity ABT (phytotoxicity rating) [14] | Post-emerge crop damage SOY (phytotoxicity rating) [15] | Pre-emerge Herbicidal Activity XAS (phytotoxicity rating) [16] | Pre-emerge Herbicidal Activity DIS (phytotoxicity rating) [17] | Post-emerge Herbicidal Activity SOH (phytotoxicity rating) [18] | Pre-emerge Herbicidal Activity ABT (phytotoxicity rating) [19] | Post-emerge crop damage RICE (phytotoxicity rating) [20] | further results
CC1C(=O)Nc2c(-c3nn(C)c(OC(F)F)c3Cl)c(F)cc3c2N1C(=O)C(C)(C)O3 (stereo not drawn) [1-60] | 80 | 85 | 100 | 85 | 100 | 80 | 98 | 5 | 100 | 70 | 40 | 30 | 100 | 100 | 50 | 85 | 100 | 0 | 100 | 0 | Post-emerge Herbicidal Activity IPH (phytotoxicity rating) [21]: 100; Pre-emerge crop damage WHEAT (phytotoxicity rating) [22]: 50; Post-emerge Herbicidal Activity CAO (phytotoxicity rating) [23]: 60; Post-emerge Herbicidal Activity AML (phytotoxicity rating) [24]: 70; Pre-emerge Herbicidal Activity CHA (phytotoxicity rating) [25]: 100; Post-emerge Herbicidal Activity ECC (phytotoxicity rating) [26]: 98; Pre-emerge Herbicidal Activity ECC (phytotoxicity rating) [27]: 100; Pre-emerge Herbicidal Activity AMR (phytotoxicity rating) [28]: 100; Post-emerge Herbicidal Activity SEV (phytotoxicity rating) [29]: 95; Post-emerge Herbicidal Activity DIS (phytotoxicity rating) [30]: 0
CC(C)C1C(=O)Nc2c3c(cc(F)c2-n2c(=O)cc(C(F)(F)F)n(C)c2=O)OCC(=O)N31 (stereo not drawn) [1-77] | 100 | 25 | 100 | 50 | 100 | 100 | 90 | 0 | 99 | 99 | 100 | 0 | 90 | 50 | 10 | 98 | 100 | 0 | 100 | 35 | Post-emerge Herbicidal Activity IPH (phytotoxicity rating) [21]: 75; Pre-emerge crop damage WHEAT (phytotoxicity rating) [22]: 99; Post-emerge Herbicidal Activity CAO (phytotoxicity rating) [23]: 0; Post-emerge Herbicidal Activity AML (phytotoxicity rating) [24]: 0; Pre-emerge Herbicidal Activity CHA (phytotoxicity rating) [25]: 100; Post-emerge Herbicidal Activity ECC (phytotoxicity rating) [26]: 0; Pre-emerge Herbicidal Activity ECC (phytotoxicity rating) [27]: 100; Pre-emerge Herbicidal Activity AMR (phytotoxicity rating) [28]: 100; Post-emerge Herbicidal Activity SEV (phytotoxicity rating) [29]: 0; Post-emerge Herbicidal Activity DIS (phytotoxicity rating) [30]: 0
CCC1C(=O)Nc2c(-c3ncc(C(F)(F)F)cc3Cl)c(F)cc3c2N1C(=O)CO3 (stereo not drawn) [1-66] | 95 | 100 | 100 | 100 | 100 | 100 | 98 | 10 | 100 | 85 | 35 | 30 | 100 | 100 | 100 | 50 | 100 | 75 | 100 | 100 | Post-emerge Herbicidal Activity IPH (phytotoxicity rating) [21]: 100; Pre-emerge crop damage WHEAT (phytotoxicity rating) [22]: 50; Post-emerge Herbicidal Activity CAO (phytotoxicity rating) [23]: 75; Post-emerge Herbicidal Activity AML (phytotoxicity rating) [24]: 80; Pre-emerge Herbicidal Activity CHA (phytotoxicity rating) [25]: 100; Post-emerge Herbicidal Activity ECC (phytotoxicity rating) [26]: 100; Pre-emerge Herbicidal Activity ECC (phytotoxicity rating) [27]: 100; Pre-emerge Herbicidal Activity AMR (phytotoxicity rating) [28]: 100; Post-emerge Herbicidal Activity SEV (phytotoxicity rating) [29]: 98; Post-emerge Herbicidal Activity DIS (phytotoxicity rating) [30]: 95
